Assay results reported in patent US20090270338A1, “DIARYL-CYCLYLALKYL DERIVATIVES AS CALCIUM CHANNEL BLOCKERS” (priority 2008, published 2009).

Tests used:
Human Cav2.2 channels = target: T1, Human Cav2.2 channels (Homo sapiens, UniProt Q00975); assay: Fluorescent assay for Cav2.2 channels using potassium depolarization (Table 2, In Vitro Activity, Cav 2.2 Activity); assay type: cell-based; conditions: for inhibition at 10 µM: read-out: % Inh at 10 μM; for inhibition at 30 µM: read-out: % Inh at 30 μM; for IC50: 30 mM K
T1 construct: expressed in transfected cells
T1 sequence (Q00975 whole entry): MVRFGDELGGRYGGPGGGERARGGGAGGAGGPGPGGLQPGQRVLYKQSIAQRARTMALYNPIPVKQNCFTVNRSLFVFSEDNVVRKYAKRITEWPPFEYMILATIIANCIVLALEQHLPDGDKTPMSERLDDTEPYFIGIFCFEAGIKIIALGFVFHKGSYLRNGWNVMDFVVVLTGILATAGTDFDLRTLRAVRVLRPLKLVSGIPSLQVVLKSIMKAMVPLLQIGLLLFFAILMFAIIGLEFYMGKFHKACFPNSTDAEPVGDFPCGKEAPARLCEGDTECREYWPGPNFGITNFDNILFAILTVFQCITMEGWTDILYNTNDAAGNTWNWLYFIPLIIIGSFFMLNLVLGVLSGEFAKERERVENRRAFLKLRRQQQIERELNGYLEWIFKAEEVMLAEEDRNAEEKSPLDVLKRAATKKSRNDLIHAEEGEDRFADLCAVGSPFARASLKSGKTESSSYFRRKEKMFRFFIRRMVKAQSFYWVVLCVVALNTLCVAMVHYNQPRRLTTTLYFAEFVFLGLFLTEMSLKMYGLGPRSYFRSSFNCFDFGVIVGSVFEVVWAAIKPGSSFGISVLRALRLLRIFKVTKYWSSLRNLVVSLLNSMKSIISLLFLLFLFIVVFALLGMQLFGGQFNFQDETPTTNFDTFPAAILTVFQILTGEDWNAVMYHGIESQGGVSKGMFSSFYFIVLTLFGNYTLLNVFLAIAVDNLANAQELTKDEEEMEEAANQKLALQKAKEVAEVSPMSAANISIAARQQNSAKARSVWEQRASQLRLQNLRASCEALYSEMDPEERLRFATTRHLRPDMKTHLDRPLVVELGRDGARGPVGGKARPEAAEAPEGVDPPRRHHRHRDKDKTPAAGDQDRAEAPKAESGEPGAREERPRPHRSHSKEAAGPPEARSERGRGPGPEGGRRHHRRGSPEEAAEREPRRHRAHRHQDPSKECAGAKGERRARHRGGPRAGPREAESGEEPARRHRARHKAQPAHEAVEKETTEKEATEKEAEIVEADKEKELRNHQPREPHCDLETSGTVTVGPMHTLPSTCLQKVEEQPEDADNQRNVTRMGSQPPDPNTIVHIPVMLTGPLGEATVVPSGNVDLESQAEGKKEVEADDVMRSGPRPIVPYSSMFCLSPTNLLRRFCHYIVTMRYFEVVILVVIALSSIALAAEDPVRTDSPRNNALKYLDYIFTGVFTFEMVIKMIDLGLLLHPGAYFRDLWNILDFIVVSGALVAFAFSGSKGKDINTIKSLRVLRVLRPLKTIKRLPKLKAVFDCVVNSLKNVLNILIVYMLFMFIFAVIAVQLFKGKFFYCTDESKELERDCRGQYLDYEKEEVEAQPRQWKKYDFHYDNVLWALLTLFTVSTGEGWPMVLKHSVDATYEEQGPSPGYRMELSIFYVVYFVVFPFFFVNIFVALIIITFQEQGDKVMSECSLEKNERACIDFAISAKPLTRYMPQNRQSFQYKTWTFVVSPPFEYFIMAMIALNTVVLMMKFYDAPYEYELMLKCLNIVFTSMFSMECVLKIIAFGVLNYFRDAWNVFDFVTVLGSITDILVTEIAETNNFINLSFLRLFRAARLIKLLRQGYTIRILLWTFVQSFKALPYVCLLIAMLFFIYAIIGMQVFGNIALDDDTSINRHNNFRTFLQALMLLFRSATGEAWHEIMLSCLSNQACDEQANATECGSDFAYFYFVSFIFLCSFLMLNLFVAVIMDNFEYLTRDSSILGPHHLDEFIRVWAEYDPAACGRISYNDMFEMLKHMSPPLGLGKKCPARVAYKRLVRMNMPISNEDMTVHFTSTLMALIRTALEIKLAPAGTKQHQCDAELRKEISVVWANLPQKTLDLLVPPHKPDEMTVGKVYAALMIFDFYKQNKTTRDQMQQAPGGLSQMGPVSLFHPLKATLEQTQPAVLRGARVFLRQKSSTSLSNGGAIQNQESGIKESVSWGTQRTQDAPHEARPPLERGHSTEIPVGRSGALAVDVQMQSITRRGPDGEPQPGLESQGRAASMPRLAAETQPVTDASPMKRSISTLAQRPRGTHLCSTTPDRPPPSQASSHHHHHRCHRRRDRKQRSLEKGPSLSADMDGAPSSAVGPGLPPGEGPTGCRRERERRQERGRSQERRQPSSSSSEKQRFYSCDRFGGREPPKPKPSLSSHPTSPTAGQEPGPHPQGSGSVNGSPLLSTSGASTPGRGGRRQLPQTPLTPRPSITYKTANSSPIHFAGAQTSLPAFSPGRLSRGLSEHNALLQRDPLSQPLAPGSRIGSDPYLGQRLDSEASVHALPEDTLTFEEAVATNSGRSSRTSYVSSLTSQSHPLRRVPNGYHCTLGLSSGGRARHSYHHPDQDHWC
T1 sequence (P54289 25-1103 partner): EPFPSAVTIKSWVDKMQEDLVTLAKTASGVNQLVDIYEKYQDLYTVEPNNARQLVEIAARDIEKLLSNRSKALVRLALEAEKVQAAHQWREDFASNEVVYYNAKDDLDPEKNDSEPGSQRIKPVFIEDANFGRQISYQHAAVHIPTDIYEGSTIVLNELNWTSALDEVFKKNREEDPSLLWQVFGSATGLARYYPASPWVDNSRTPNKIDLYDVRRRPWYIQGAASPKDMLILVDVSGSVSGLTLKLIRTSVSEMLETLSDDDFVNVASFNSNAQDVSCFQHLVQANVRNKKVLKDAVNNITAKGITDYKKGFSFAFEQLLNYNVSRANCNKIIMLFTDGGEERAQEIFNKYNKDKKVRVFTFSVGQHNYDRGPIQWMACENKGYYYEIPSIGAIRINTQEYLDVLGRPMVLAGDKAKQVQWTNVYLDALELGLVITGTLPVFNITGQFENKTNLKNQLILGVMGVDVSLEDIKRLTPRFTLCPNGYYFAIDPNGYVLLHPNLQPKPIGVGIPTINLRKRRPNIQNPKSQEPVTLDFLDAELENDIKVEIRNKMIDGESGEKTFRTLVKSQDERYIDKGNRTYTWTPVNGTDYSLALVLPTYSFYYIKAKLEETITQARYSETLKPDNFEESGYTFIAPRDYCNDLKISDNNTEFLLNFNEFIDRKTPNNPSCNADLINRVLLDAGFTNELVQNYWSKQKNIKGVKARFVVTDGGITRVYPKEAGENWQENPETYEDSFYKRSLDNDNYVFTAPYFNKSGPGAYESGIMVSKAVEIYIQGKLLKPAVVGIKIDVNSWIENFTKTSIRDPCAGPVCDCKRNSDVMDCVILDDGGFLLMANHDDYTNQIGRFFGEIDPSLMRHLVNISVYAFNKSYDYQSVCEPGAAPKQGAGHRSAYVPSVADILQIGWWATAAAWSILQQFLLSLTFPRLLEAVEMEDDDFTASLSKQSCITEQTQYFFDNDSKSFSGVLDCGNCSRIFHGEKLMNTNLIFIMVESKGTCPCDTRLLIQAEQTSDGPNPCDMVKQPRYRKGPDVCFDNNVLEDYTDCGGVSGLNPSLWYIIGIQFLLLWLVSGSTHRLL
T1 sequence (P54284 whole entry partner): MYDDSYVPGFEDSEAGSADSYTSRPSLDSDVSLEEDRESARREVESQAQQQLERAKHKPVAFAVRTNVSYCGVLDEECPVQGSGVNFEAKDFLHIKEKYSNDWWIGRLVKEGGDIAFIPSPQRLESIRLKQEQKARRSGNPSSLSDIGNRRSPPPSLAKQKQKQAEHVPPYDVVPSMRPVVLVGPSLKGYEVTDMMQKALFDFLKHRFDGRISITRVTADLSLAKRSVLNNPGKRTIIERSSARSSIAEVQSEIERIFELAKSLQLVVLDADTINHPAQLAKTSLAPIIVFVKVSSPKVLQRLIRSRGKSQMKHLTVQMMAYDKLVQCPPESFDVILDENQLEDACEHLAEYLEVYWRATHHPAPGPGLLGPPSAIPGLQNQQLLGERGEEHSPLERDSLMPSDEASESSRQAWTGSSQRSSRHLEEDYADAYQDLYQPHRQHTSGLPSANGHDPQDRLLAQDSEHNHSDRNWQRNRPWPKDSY
From the text: Human Cav2.2 channels were stably expressed in HEK293 cells along with alpha2-delta and beta subunits of voltage-gated calcium channels. An inwardly rectifying potassium channel (Kir2.3) was also expressed in these cells to allow more precise control of the cell membrane potential by extracellular potassium concentration. At low bath potassium concentration, the membrane potential is relatively negative, and is depolarized as the bath potassium concentration is raised. In this way, the bath potassium concentration can be used to regulate the voltage-dependent conformations of the channels. Compounds are incubated with cells in the presence of low (4 mM) potassium or elevated (12, 25 or 30 mM) potassium to determine the affinity for compound block of resting (closed) channels at 4 mM potassium or affinity for block of open and inactivated channels at 12, 25 or 30 mM potassium. After the incubation period, Cav2.2 channel opening is triggered by addition of higher concentration of potassium (70 mM final concentration) to further depolarize the cell. The degree of state-dependent block can be estimated from the inhibitory potency of compounds after incubation in different potassium concentrations.
Calcium influx through Cav2.2 channels is determined using a calcium sensitive fluorescent dye in combination with a fluorescent plate reader. Fluorescent changes were measured with either a VIPR (Aurora Instruments) or FLIPR (Molecular Devices) plate reader.
1. Seed cells in Poly-D-Lysine Coated 96 or 384-well plate and keep in a 37° C.-10% CO2 incubator overnight 2. Remove media, wash cells with 0.2 mL (96-well plate) or 0.05 mL (384-well plate) Dulbecco's Phosphate Buffered Saline (D-PBS) with calcium & magnesium (Invitrogen; 14040) 3. Add 0.1 mL (96-well plate) or 0.05 mL (384-well plate) of 4 μM fluor-4 (Molecular Probes; F-14202) and 0.02% Pluronic acid (Molecular Probes; P-3000) prepared in D-PBS with calcium & magnesium (Invitrogen; 14040) supplemented with 10 mM Glucose & 10 mM Hepes/NaOH; pH 7.4 4. Incubate in the dark at 25° C. for 60-70 min 5. Remove dye, wash cells with 0.1 mL (96-well plate) or 0.06 mL (384-well plate) of 4, 12, 25, or 30 mM Potassium Pre-polarization Buffer (PPB) 6. Add 0.1 mL (96-well plate) or 0.03 mL (384-well plate) of 4, 12, 25, 30 mM PPB with or without test compound 7. Incubate in the dark at 25° C. for 30 min 8. Read cell plate on VIPR instrument, Excitation=480 nm, Emission=535 nm 9. With VIPR continuously reading, add 0.1 mL (96-well plate) or 0.03 mL (384-well plate) of Depolarization Buffer (DB), which is 2× the final assay concentration, to the cell plate.

[1] = test system: T-type over L-type channels; conditions: cited from earlier work

inhibition at 10 µM (Human Cav2.2 channels)	inhibition at 30 µM (Human Cav2.2 channels)	IC50 (Human Cav2.2 channels)	Molecule	% Inh at 10 μM (Human Cav2.2 channels)	% Inh at 30 μM (Human Cav2.2 channels)	fold selective for T-type over L-type channels [1]
96%	101%	430 nM	O=C(CC(c1ccccc1)c1ccccc1)NC1(C(=O)NCc2ccc(F)cc2F)CCCCC1 [Compound 10, N-(2,4-difluorobenzyl)-1-(3,3-diphenylpropanamido)cyclohexanecarboxamide]	–	–	–
87%	97%	–	O=C(CC(c1ccccc1)c1ccccc1)NC1(C(=O)NCc2ccc(O)cc2)CCCCC1 [Compound 18, 1-(3,3-diphenylpropanamido)-N-(4-hydroxybenzyl)cyclohexane carboxamide]	–	–	–
81%	85%	2750 nM	Cc1ccnc(N2CCN(C(=O)C3(NC(=O)CC(c4ccccc4)c4ccccc4)CCCCC3)CC2)c1 [Compound 16, N-(1-(4-(4-methylpyridin-2-yl)piperazine-1-carbonyl)cyclohexyl)-3,3-diphenylpropanamide]	–	–	–
55%	77%	–	O=C(CC(c1ccccc1)c1ccccc1)NC1(C(=O)NCc2nccs2)CCCCC1 [Compound 22, 1-(3,3-diphenylpropanamido)-N-(thiazol-2-ylmethyl)cyclohexane carboxamide]	–	–	–
99%	102%	190 nM	O=C(CC(c1ccccc1)c1ccccc1)NC1(C(=O)NCc2cccc(C(F)(F)F)c2)CCCCC1 [Compound 7, 1-(3,3-diphenylpropanamido)-N-(3-(trifluoromethyl)benzyl)cyclohexanecar-boxamide]	–	–	–
62%	93%	–	Cc1cnc(CNC(=O)C2(NC(=O)CC(c3ccccc3)c3ccccc3)CCCCC2)cn1 [Compound 19, 1-(3,3-diphenylpropanamido)-N-((5-methylpyrazin-2-yl)methyl)cyclohexanecarboxamide]	–	–	–
71%	86%	–	Cc1cc(CNC(=O)C2(NC(=O)CC(c3ccccc3)c3ccccc3)CCCCC2)no1 [Compound 20, 1-(3,3-diphenylpropanamido)-N-((5-methylisoxazol-3-yl)methyl)cyclohexanecarboxamide]	–	–	–
97%	102%	170 nM	COc1ccc(CNC(=O)C2(NC(=O)CC(c3ccccc3)c3ccccc3)CCCCC2)cc1 [Compound 9, 1-(3,3-diphenylpropanamido)-N-(4-methoxybenzyl)cyclohexane carboxamide]	–	–	–
14%	51%	–	Cc1cnccc1CNC(=O)C1(NC(=O)CC(c2ccccc2)c2ccccc2)CCCCC1 [Compound 21, 1-(3,3-diphenylpropanamido)-N-((3-methylpyridin-4-yl)methyl)cyclohexanecarboxamide]	–	–	–
99%	102%	190 nM	O=C(CC(c1ccccc1)c1ccccc1)NC1(C(=O)NCc2ccc(F)cc2)CCCCC1 [Compound 8, 1-(3,3-diphenylpropanamido)-N-(4-fluorobenzyl)cyclohexanecarboxamide]	–	–	–
81%	88%	–	Cc1cccnc1CNC(=O)C1(NC(=O)CC(c2ccccc2)c2ccccc2)CCCCC1 [Compound 23, 1-(3,3-diphenylpropanamido)-N-((3-methylpyridin-2-yl)methyl)cyclohexanecarboxamide]	–	–	–
86%	96%	–	CS(=O)(=O)c1ccc(CNC(=O)C2(NC(=O)CC(c3ccccc3)c3ccccc3)CCCCC2)cc1 [Compound 17, 1-(3,3-diphenylpropanamido)-N-(4-(methylsulfonyl)benzyl)cyclohexane carboxamide]	–	–	–
95%	98%	370 nM	Cc1ccc(N2CCN(C(=O)C3(NC(=O)CC(c4ccccc4)c4ccccc4)CCCCC3)CC2)cc1C [Compound 12, N-(1-(4-(3,4-dimethylphenyl)piperazine-1-carbonyl)cyclohexyl)-3,3-diphenylpropanamide]	–	–	–

Second part, the molecule before the results:

Molecule	inhibition at 10 µM (Human Cav2.2 channels)	inhibition at 30 µM (Human Cav2.2 channels)	IC50 (Human Cav2.2 channels)	% Inh at 10 μM (Human Cav2.2 channels)	% Inh at 30 μM (Human Cav2.2 channels)	fold selective for T-type over L-type channels [1]
O=C(CC(c1ccccc1)c1ccccc1)NC1(C(=O)N2CCN(c3cccc(F)c3)CC2)CCCCC1 [Compound 15, N-(1-(4-(3-fluorophenyl)piperazine-1-carbonyl)cyclohexyl)-3,3-diphenylpropanamide]	72%	81%	330 nM	–	–	–
N-(1-(4-(4-fluorophenyl)piperazine-1- carbonyl)cyclohexyl)-3,3- diphenylpropanamide [Compound 6]	–	–	280 nM	99%	100%	–
O=C(CC(c1ccccc1)c1ccccc1)NC1(C(=O)N2CCN(c3ccccc3)CC2)CCCCC1 [Compound 4, 3,3-diphenyl-N-(1-(4-phenylpiperazine-1-carbonyl)cyclohexyl)propanamide]	80%	90%	340 nM	–	–	–
Cc1ccccc1C(CC(=O)NC1(C(=O)N2CCN(c3ccccc3)CC2)CCCCC1)c1ccccc1C [Compound 3, N-(1-(4-phenylpiperazine-1-carbonyl)cyclohexyl)-3,3-dio-tolylpropanamide]	95%	96%	440 nM	–	–	–
3,3-diphenyl-N-(1-(4-phenylpiperazine- 1-carbonyl)cyclohexyl)propanamide [Compound 5]	–	–	380 nM	92%	84%	–
COCC(=O)O[C@]1(CCN(C)CCCc2nc3ccccc3[nH]2)CCc2cc(F)ccc2[C@@H]1C(C)C [Mibefradil]	–	–	–	–	–	10-30 fold
O=C(CC(c1ccccc1)c1ccccc1)NC1(C(=O)N2CCN(c3ccc(F)cc3F)CC2)CCCCC1 [Compound 14, N-(1-(4-(2,4-difluorophenyl)piperazine-1-carbonyl)cyclohexyl)-3,3-diphenylpropanamide]	81%	86%	320 nM	–	–	–
Cc1ccccc1C(CC(=O)NC1(C(=O)N2CCN(C(C)(C)C)CC2)CCCCC1)c1ccccc1C [Compound 2, N-(1-(4-tert-butylpiperazine-1-carbonyl)cyclohexyl)-3,3-dio-tolylpropanamide]	67%	92%	–	–	–	–
CC(C)(C)N1CCN(C(=O)C2(NC(=O)CC(c3ccccc3)c3ccccc3)CCCCC2)CC1 [Compound 1, N-(1-(4-tert-butylpiperazine-1-carbonyl)cyclohexyl)-3,3-diphenylpropanamide]	42%	65%	–	–	–	–
O=C(CC(c1ccccc1)c1ccccc1)NC1(C(=O)N2CCN(c3ccc(C(F)(F)F)cc3)CC2)CCCCC1 [Compound 13, 3,3-diphenyl-N-(1-(4-(4-(trifluoromethyl)phenyl)piperazine-1-carbonyl)cyclohexyl)propanamide]	96%	95%	590 nM	–	–	–
O=C(CC(c1ccccc1)c1ccccc1)NC1(C(=O)N2CCN(c3ccc(Cl)cc3)CC2)CCCCC1 [Compound 11, N-(1-(4-(4-chlorophenyl)piperazine-1-carbonyl)cyclohexyl)-3,3-diphenylpropanamide]	93%	101%	690 nM	–	–	–
